Tests used:
[1] = target: T1, recombinant human KDM5B (Homo sapiens, UniProt Q9UGL1); test: 14CO2 capture enzymatic assay (decarboxylation of [1-14C] αKG), KDM5B; type: biochemical; conditions: 10 μM [1-14C] αKG, 90 μM non-labeled αKG, 50 μM peptide substrate, 37° C., 1 hour, final 1% DMSO
T1 sequence (Q9UGL1 374-755 limits assumed): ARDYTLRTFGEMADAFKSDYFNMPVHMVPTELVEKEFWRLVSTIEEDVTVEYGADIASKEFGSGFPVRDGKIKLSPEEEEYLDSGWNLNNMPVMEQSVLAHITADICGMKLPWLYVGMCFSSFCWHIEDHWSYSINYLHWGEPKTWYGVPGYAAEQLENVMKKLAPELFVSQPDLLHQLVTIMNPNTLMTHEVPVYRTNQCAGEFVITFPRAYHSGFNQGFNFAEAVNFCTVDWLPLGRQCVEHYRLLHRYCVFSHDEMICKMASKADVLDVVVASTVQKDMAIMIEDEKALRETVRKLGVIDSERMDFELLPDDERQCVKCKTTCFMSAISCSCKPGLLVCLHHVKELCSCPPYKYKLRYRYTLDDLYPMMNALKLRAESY
Procedure: (§1) Enzymatic activity was determined based on the capture of ^14CO2 released by the decarboxylation of [1-^14C] αKG (Zhang et al., Anal. Biochem., 1998, vol. 271, pp. 137-142). [1-^14C]alphaketoglutarate (αKG) was from Perkin-Elmer, H3K4me3 and H3K9me3 peptides were from Mimotopes. All other reagents were from Sigma. Reaction mixtures included the following components: Fe(SO4), [1-^14C] αKG, non-labeled αKG, ascorbate, peptide-substrate (H3K4me3: H-ARTK(me3)QTARKSTGGKAPRKQLA-OH. H3K9me3: H-ARTKQTARK(me3)STGGKAPRKQLA-OH), NaCl, Tween-20 and catalase in 25 mM HEPES buffer, pH 7.4. The enzymatic reactions were initiated by addition of recombinant human KDM5B or KDM4A enzyme (truncated enzyme produced in house by method and using sequence disclosed in Ng et al, Nature 448:87-91, 2007). The reactions were performed in 96-well microtiter plates (20 μL total assay volume) (Greiner #650201). ^14CO2 was captured on a glass fiber filter paper (Cat. No. IH-201-A, Inotech Biosystems International) soaked with saturated Ba(OH)2 that was laid on top of the 96-well plate. A microtiter plate sealer film (Thermal Seal cat #T7961100) was applied to the filter paper. The plate and filter paper were sandwiched between two custom made aluminum plates (Advanced Component Manufacturing, Burlingame, CA) and transferred to a 37° C. oven and allowed to incubate for 1 hour. After incubation, the filter paper was dried in a 103° C. oven for 40-60 minutes. To determine percent turnover, aliquots of the reaction mixture were spotted onto the filter paper and the filter paper was dried again. The dry filter paper was exposed to a storage phosphor screen for 24-72 hours and the images recorded using a Typhoon FLA 7000 Imager (Amersham Biosciences, Piscataway, NJ). Integrated spot intensities corresponding to control reactions lacking the enzyme were subtracted from integration results for enzyme containing reactions and data were converted to enzyme dependent percent ^14CO2 release. All enzymatic reactions were run in duplicates.
(§2) For IC50 determination, a 3-fold dilution series of compound was prepared and added to the reaction mixture (final 1% DMSO, v/v) prior to enzyme addition. The final reagent concentrations were: 10 μM Fe(SO4), 10 μM [1-^14C] αKG, 90 μM non-labeled αKG, 2 mM ascorbate, 50 μM peptide substrate, 75 mM NaCl, 0.01% Tween-20 and ˜2 units/μL catalase. IC50s were determined by non-linear fitting using Grafit version 7.0.

[2] = target: T2, recombinant human KDM4A (Homo sapiens, UniProt O75164); test: 14CO2 capture enzymatic assay (decarboxylation of [1-14C] αKG), KDM4A; type: biochemical; conditions: 10 μM [1-14C] αKG, 90 μM non-labeled αKG, 50 μM peptide substrate, 37° C., 1 hour, final 1% DMSO
T2 construct: made in house
T2 sequence (O75164 1-359 limits assumed): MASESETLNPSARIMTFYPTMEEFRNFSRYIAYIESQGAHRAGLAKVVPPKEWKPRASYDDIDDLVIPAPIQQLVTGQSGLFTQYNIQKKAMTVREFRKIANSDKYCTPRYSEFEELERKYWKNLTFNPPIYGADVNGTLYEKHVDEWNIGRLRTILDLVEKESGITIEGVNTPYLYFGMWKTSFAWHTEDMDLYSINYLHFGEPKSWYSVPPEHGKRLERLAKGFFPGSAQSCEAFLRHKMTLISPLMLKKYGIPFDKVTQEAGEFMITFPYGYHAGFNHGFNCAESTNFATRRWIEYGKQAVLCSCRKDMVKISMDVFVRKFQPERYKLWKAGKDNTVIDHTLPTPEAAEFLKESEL
Procedure: as §1, §2

SMILES	IC50 [1] [nM]	IC50 [2] [nM]
Cc1ccc(C)c(-c2cc(C#N)c(O)c(C(=O)CCC(=O)O)n2)c1 [Example 94, 4-[4-Cyano-6-(2,5-dimethyl-phenyl)-3-hydroxy-pyridin-2-yl]-4-oxo-butyric acid]	270	> 40000
Cc1cccc(F)c1Cc1cc(C#N)c(O)c(C(=O)CCC(=O)O)n1 [Example 148, 4-[4-Cyano-6-(2-fluoro-6-methyl-benzyl)-3-hydroxy-pyridin-2-yl]-4-oxo-butyric acid]	300	4300
N#Cc1cc(Cc2c(Cl)cccc2Cl)cc(C(=O)CCC(=O)O)c1O [Example 121, 4-[3-Cyano-5-(2,6-dichloro-benzyl)-2-hydroxy-phenyl]-4-oxo-butyric acid]	80	> 40000
N#Cc1ccccc1Cc1cc(C#N)c(O)c(C(=O)CCC(=O)O)n1 [Example 46, 4-[4-Cyano-6-(2-cyano-benzyl)-3-hydroxy-pyridin-2-yl]-4-oxo-butyric acid]	430	13000
N#Cc1cc(Cc2cc(Cl)cc(Cl)c2)nc(C(=O)CCC(=O)O)c1O [Example 31, 4-[4-Cyano-6-(3,5-dichloro-benzyl)-3-hydroxy-pyridin-2-yl]-4-oxo-butyric acid]	230	> 40000
N#Cc1cc(Cc2c(F)cccc2Cl)nc(C(=O)CCC(=O)O)c1O [Example 30, 4-[6-(2-Chloro-6-fluoro-benzyl)-4-cyano-3-hydroxy-pyridin-2-yl]-4-oxo-butyric acid]	250	17000
N#Cc1nc(Cc2ccccc2)cc(C(=O)CCC(=O)O)c1O [Example 160, 4-(6-Benzyl-2-cyano-3-hydroxy-pyridin-4-yl)-4-oxo-butyric acid]	2000	> 40000
Cc1cccc(C)c1C(=O)N(C)c1cc(C#N)c(O)c(C(=O)CCC(=O)O)n1 [Example 130, 4-{4-Cyano-6-[(2,6-dimethyl-benzoyl)-N-methyl-amino]-3-hydroxy-pyridin-2-yl}-4-oxo-butyric acid]	3200	> 40000
Cc1ccc(C#N)cc1-c1cc(C#N)c(O)c(C(=O)CCC(=O)O)n1 [Example 100, 4-[4-Cyano-6-(5-cyano-2-methyl-phenyl)-3-hydroxy-pyridin-2-yl]-4-oxo-butyric acid]	430	> 40000
N#Cc1cc(-c2ccc(C(F)(F)F)cc2Cl)nc(C(=O)CCC(=O)O)c1O [Example 115, 4-[6-(2-Chloro-4-trifluoromethyl-phenyl)-4-cyano-3-hydroxy-pyridin-2-yl]-4-oxo-butyric acid]	230	> 40000
Cc1ccc(-c2cc(C#N)c(O)c(C(=O)CCC(=O)O)n2)c(Cl)c1 [Example 84, 4-[6-(2-Chloro-4-methyl-phenyl)-4-cyano-3-hydroxy-pyridin-2-yl]-4-oxo-butyric acid]	460	> 40000
Cc1cccc(-c2cc(C#N)c(O)c(C(=O)CCC(=O)O)n2)c1Cl [Example 101, 4-[6-(2-Chloro-3-methyl-phenyl)-4-cyano-3-hydroxy-pyridin-2-yl]-4-oxo-butyric acid]	310	> 40000
COc1ccc(-c2cc(C#N)c(O)c(C(=O)CCC(=O)O)n2)c(Cl)c1 [Example 81, 4-[6-(2-Chloro-4-methoxy-phenyl)-4-cyano-3-hydroxy-pyridin-2-yl]-4-oxo-butyric acid]	340	> 40000
O=C(O)CCC(=O)c1nc(C(F)(F)F)cc(C(F)(F)F)c1O [Example 4, 4-(3-Hydroxy-4,6-bis-trifluoromethyl-pyridin-2-yl)-4-oxo-butyric acid]	230	3500
N#Cc1cc(-c2ccc(F)cc2Cl)nc(C(=O)CCC(=O)O)c1O [Example 83, 4-[6-(2-Chloro-4-fluoro-phenyl)-4-cyano-3-hydroxy-pyridin-2-yl]-4-oxo-butyric acid]	250	> 40000
N#Cc1cc(Oc2ccccc2Cl)cc(C(=O)CCC(=O)O)c1O [Example 136, 4-[5-(2-Chloro-phenoxy)-3-cyano-2-hydroxy-phenyl]-4-oxo-butyric acid]	370	> 40000
N#Cc1cc(Cc2cc(Cl)ccc2Cl)nc(C(=O)CCC(=O)O)c1O [Example 63, 4-[4-Cyano-6-(2,5-dichloro-benzyl)-3-hydroxy-pyridin-2-yl]-4-oxo-butyric acid]	240	36000
N#Cc1cc(Cc2ccccc2Cc2ccccc2)nc(C(=O)CCC(=O)O)c1O [Example 146, 4-[6-(2-Benzyl-benzyl)-4-cyano-3-hydroxy-pyridin-2-yl]-4-oxo-butyric acid]	140	39000
N#Cc1cc(-c2cccc(F)c2)nc(C(=O)CCC(=O)O)c1O [Example 20, 4-[4-Cyano-6-(3-fluoro-phenyl)-3-hydroxy-pyridin-2-yl]-4-oxo-butyric acid]	170	> 40000
CCc1ccccc1-c1cc(C#N)c(O)c(C(=O)CCC(=O)O)n1 [Example 85, 4-[4-Cyano-6-(2-ethyl-phenyl)-3-hydroxy-pyridin-2-yl]-4-oxo-butyric acid]	450	> 40000
Cc1cccc(C)c1Cc1cc(C#N)c(O)c(C(=O)CCC(=O)O)n1 [Example 54, 4-[4-Cyano-6-(2,6-dimethyl-benzyl)-3-hydroxy-pyridin-2-yl]-4-oxo-butyric acid]	230	4900
Cc1c(F)cccc1-c1cc(C#N)c(O)c(C(=O)CCC(=O)O)n1 [Example 80, 4-[4-Cyano-6-(3-fluoro-2-methyl-phenyl)-3-hydroxy-pyridin-2-yl]-4-oxo-butyric acid]	390	> 40000
N#Cc1cc(Cc2c(F)ccc(F)c2F)nc(C(=O)CCC(=O)O)c1O [Example 57, 4-[4-Cyano-3-hydroxy-6-(2,3,6-trifluoro-benzyl)-pyridin-2-yl]-4-oxo-butyric acid]	270	28000
Cc1cc(Cl)cc(C)c1Cc1cc(C#N)c(O)c(C(=O)CCC(=O)O)n1 [Example 152, 4-[4-Cyano-6-(4-chloro-2,6-dimethyl-benzyl)-3-hydroxy-pyridin-2-yl]-4-oxo-butyric acid]	450	9700
N#Cc1cc(Cc2cccc(F)c2)nc(C(=O)CCC(=O)O)c1O [Example 42, 4-[4-Cyano-6-(3-fluoro-benzyl)-3-hydroxy-pyridin-2-yl]-4-oxo-butyric acid]	210	32000
Cc1cccc(C(F)(F)F)c1Cc1cc(C#N)c(O)c(C(=O)CCC(=O)O)n1 [Example 62, 4-[4-Cyano-3-hydroxy-6-(2-methyl-6-trifluoromethyl-benzyl)-pyridin-2-yl]-4-oxo-butyric acid]	470	> 40000
Cc1c(C#N)cccc1-c1cc(C#N)c(O)c(C(=O)CCC(=O)O)n1 [Example 98, 4-[4-Cyano-6-(3-cyano-2-methyl-phenyl)-3-hydroxy-pyridin-2-yl]-4-oxo-butyric acid]	300	> 40000
N#Cc1cc(Cc2cccc(Cl)c2Cl)nc(C(=O)CCC(=O)O)c1O [Example 65, 4-[4-Cyano-6-(2,3-dichloro-benzyl)-3-hydroxy-pyridin-2-yl]-4-oxo-butyric acid]	180	14000
